Patent US11618738B2, “Compound and application thereof in treating inflammation or inflammation-related diseases” (SICHUAN CENTER FOR TRANSLATIONAL MEDICINE OF TRADITIONAL …, priority 2017, dated 2023)
Read-outs that look alike come from different tables or passages of the source.

How the values were obtained:
[1] = system: OA-induced hyperuricemia model mice; experiment: Serum UA in oxonic acid potassium salt-induced hyperuricemia model mice; format: in vivo; settings: for UA: serum, oxonic acid potassium salt 300 mg/kg i.p., mean ± SD
Experimental: Oxoxazine potassium salt can directly increase blood uric acid levels in animals. In this experiment, intraperitoneal injection of oxonic acid potassium salt was used to observe the uric acid-lowering effect of UTLOH series drugs.
(§1) SPF grade KM mice, half female and half male (18-22 g/mouse). After the animals were adaptively fed for 3 days, they were randomly grouped by body weight. It was administered once a day for 7 consecutive days by gavage. On the 7th day, 1 hour before the gavage administration, the mice were intraperitoneally injected with a dose of 300 mg/kg of oxonic acid potassium salt. After the administration, the eyeballs were removed to take blood, and the serum was separated for testing. After decapitation, the liver was taken, weighed, cut into pieces, added with saline, homogenized, and centrifuged. Operated according to the kit instructions to determine the blood uric acid (UA) level in each group of mice; determine the xanthine oxidase (XOD) activity in the supernatant of mouse liver homogenate.

NO induced by LPS = experiment: Inhibition of LPS-induced NO in RAW 264.7 cells (Greiss reagent); format: cell-based, mice; settings: for IC50: Mus musculus, RAW264.7
Description: Nitric oxide (NO) is a signaling molecule that plays a key role in the pathogenesis of inflammation. Under abnormal conditions, NO is a pro-inflammatory mediator that causes inflammation due to its overproduction. Therefore, the regulation of elevated NO levels by stimulants (such as LPS) has been widely used as a screening method to identify anti-inflammatory drugs. Since NO is oxidized into nitrite and nitrate, the determination of total NO2^−/NO3^− is a conventional method for determining NO levels, and Griess reagent is usually used in this type of experiment.
This example is taken from a previous publication by Song et al.^[1]. In brief, mice RAW 264.7 cells were treated with increasing doses of each test compound at 37° C. for 1 hour. Thereafter, the cells were attacked with 20 μL/well of LPS (equivalent to a final concentration of 100 ng/mL). The cells were further incubated overnight at 37° C. A commercial ELISA assay kit obtained from R&D Systems (Minneapolis, Minn.) was used to determine the level of PGE2 in the supernatant, and three parallel experiments were performed. The optical density of each well was measured using a BioTek Epoch microplate reader (Winooski, Vt.) set to 450 nm. The NO study was performed in a similar manner, but Greiss reagent was used to monitor the level of NO, and the results were read at 550 nm.

[2] = system: writhing response of mice with acetic acid; experiment: Writhing response of mice induced by intraperitoneal glacial acetic acid; format: in vivo; settings: for Writhing reaction inhibition percentage (%): mean ± SD; for writhing response in mice induced by acetic acid (in words): the four dose groups (25-200 mg/kg)
Experimental: After glacial acetic acid is injected into the abdominal cavity of mice, it can cause inflammatory pain and cause writhing reaction in mice. In this experiment, the analgesic effects of UTLOH compounds were observed by the number of writhing times in mice after intraperitoneal injection of glacial acetic acid.
Taking 100 KM mice, SPF grade, half male and half […] (18-22 g/mouse), and randomly grouping them according to their body weight. Except that the blank control group was given 0.5% CMC-Na suspension by gavage administration, the other groups were given the corresponding drugs by gavage for 3 continuous days, once a day, with a gavage volume of 0.2 ml/10 g. 30 minutes after the administration on the 3rd day, each group of mice was intraperitoneally injected with 0.6% glacial acetic acid, 0.1 ml/10 g, to create writhing reaction model in mice.

xanthine oxidase (XOD) = target: T1, xanthine oxidase (XOD) (Mus musculus, UniProt Q00519); experiment: Liver XOD activity in OA-induced hyperuricemia model mice; format: in vivo; settings: for XOD(U/gprot): liver homogenate, mean ± SD
T1 construct: from tissue; host or cells: liver of KM mice (homogenate supernatant)
Experimental: as §1

[3] = 6.25 mg/kg gavage once a day for 7 days
[4] = 12.5 mg/kg gavage once a day for 7 days
[5] = 25 mg/kg gavage once a day for 3 days
[6] = 50 mg/kg gavage once a day for 3 days
[7] = 100 mg/kg gavage once a day for 3 days
[8] = 200 mg/kg gavage once a day for 3 days

T1 sequence (Q00519 whole entry): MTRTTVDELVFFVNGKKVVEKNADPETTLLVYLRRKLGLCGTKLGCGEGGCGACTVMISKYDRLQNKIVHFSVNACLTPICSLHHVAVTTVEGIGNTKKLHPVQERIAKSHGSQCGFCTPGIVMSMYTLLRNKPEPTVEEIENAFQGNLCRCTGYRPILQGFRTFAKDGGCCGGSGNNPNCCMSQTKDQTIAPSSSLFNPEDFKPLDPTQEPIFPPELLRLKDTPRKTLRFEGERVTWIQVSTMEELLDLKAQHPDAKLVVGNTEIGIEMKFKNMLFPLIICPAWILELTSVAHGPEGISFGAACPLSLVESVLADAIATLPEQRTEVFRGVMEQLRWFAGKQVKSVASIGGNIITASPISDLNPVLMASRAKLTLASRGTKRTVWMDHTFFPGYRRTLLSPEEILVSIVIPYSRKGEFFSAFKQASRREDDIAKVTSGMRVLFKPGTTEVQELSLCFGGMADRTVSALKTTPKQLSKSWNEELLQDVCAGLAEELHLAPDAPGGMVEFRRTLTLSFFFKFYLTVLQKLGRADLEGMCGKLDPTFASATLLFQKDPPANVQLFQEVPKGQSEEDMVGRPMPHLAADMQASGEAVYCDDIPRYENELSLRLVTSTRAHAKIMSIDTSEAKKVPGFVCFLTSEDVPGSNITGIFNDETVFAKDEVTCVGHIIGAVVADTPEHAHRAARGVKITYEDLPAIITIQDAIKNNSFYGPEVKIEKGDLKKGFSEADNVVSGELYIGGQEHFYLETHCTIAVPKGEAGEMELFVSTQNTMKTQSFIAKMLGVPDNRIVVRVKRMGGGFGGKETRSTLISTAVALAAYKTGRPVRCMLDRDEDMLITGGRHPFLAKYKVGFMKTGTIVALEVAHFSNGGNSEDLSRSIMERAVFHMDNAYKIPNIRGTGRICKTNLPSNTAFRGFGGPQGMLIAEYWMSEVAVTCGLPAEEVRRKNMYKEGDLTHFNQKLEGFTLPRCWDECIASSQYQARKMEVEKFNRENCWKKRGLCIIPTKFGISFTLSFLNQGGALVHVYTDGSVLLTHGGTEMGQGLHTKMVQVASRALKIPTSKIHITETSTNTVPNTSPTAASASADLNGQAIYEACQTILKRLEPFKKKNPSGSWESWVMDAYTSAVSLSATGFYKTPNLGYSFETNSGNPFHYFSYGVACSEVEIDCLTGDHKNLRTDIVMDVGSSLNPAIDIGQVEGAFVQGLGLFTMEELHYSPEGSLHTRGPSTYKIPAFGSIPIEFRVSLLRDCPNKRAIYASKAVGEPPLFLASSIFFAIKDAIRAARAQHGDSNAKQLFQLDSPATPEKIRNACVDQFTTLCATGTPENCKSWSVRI

Row | IC50 (NO induced by LPS; same method as Table 1, given as 10-50 μM, or <10 μM, read-out: IC50 of NO) | XOD(U/gprot) (xanthine oxidase (XOD); [3]) | XOD(U/gprot) (xanthine oxidase (XOD); [4]) | liver XOD activity of model mice (in words) (xanthine oxidase (XOD); versus model group) | IC50 (NO induced by LPS; RAW 264.7 cells, LPS 100 ng/mL, overnight, read-out: NO IC50 (μM), class) | IC50 (NO induced by LPS; RAW 264.7 cells, LPS 100 ng/mL, overnight, read-out: NO IC50 (μM), value in brackets) | Structure (SMILES) | UA [1, 3] | UA [1, 4] | level of uric acid in the serum of model mice (in words) ([1]; versus model group) | Writhing reaction inhibition percentage (%) [2, 5] | Writhing reaction inhibition percentage (%) [2, 6] | Writhing reaction inhibition percentage (%) [2, 7] | Writhing reaction inhibition percentage (%) [2, 8] | writhing response in mice induced by acetic acid (in words) [2] | inhibition of LPS-induced NO compared with leflunomide and teriflunomide (in words) (NO induced by LPS; compared with leflunomide and teriflunomide)
1 | ≤ 50 µM | 21.55 ± 2.00 U/gprot | 22.54 ± 3.98 U/gprot | significantly reduce |  |  | Cc1cc(C(=O)Nc2ccc(O)cc2O)no1 [UTLOH-4e] | 50.07 ± 9.86 µmol/L | 47.15 ± 13.48 µmol/L | significantly reduce | 36.52 ± 10.08 % | 35.63 ± 17.03 % | 39.54 ± 15.18 % | 30.14 ± 17.18 % | significantly inhibit | 
2 |  |  |  |  | < 10 µM | 1.4 µM | Cc1cc(C(=O)Nc2ccccc2O)no1 [UTLOH-4a] |  |  |  | 21.63 ± 29.24 % | 24.26 ± 10.11 % | 28.48 ± 15.74 % | 23.05 ± 10.08 % | significantly inhibit | more strongly
